Legend:
Type in all cases: in vivo
corn [1] = assay: Upland soil treatment test (6), phytotoxicity; conditions: 100 g/hectare, 20th day after treatment; further: ranges in brackets are in %
Method: (§1) 90 Parts by weight of the above carrier and 10 parts by weight of each of Compounds obtained in the above Preparation Examples were uniformly pulverized and mixed to obtain herbicides. Further, for Herbicide Comparative Examples, comparative herbicides were prepared by uniformly pulverizing and mixing 90 parts by weight of the above carrier and 10 parts by weight of each of the following Compounds x, y, A, B and C.
(§2) (6) Biological Test (Upland Soil Treatment Test, Herbicide Examples 27˜42 and Comparative Example 10).
(§3) Seeds of weeds such as large crabgrass, barnyard grass, green foxtail, cocklebur , velvetleaf and slender amaranth and seeds of corn, wheat and barley were sown in 1/5,000-are Wagner pots filled with upland soil, and covered with upland soil. Then, a predetermined amount of the herbicide prepared in the above (1) was suspended in water and uniformly sprayed onto the soil surface. Thereafter, the plants were grown in the greenhouse, and on 20th day after the treatment, the herbicide was evaluated f or herbicidal efficacy.
(§4) The dosage of each herbicide is indicated as an amount of the active ingredient per hectare. Further, air-dried weight were measured and the herbicidal efficacy and the phytotoxicity to corn are shown on the basis of the ratings described below.

velvetleaf [2] = assay: Upland soil treatment test (6); conditions: 100 g/hectare, 20th day after treatment; further: ranges in brackets are in %
Method: as §1, §2, §3, §4

green foxtail [3] = assay: Upland soil treatment test (6); conditions: 100 g/hectare, 20th day after treatment; further: ranges in brackets are in %
Method: as §1, §2, §3, §4

large crabgrass [4] = assay: Upland soil treatment test (6); conditions: 100 g/hectare, 20th day after treatment; further: ranges in brackets are in %
Method: as §1, §2, §3, §4

cocklebur [5] = assay: Upland soil treatment test (6); conditions: 100 g/hectare, 20th day after treatment; further: ranges in brackets are in %
Method: as §1, §2, §3, §4

slender amaranth [6] = assay: Upland soil treatment test (6); conditions: 100 g/hectare, 20th day after treatment; further: ranges in brackets are in %
Method: as §1, §2, §3, §4

barnyard grass [7] = assay: Upland soil treatment test (6); conditions: 100 g/hectare, 20th day after treatment; further: ranges in brackets are in %
Method: as §1, §2, §3, §4

velvetleaf [8] = assay: Upland soil treatment test (3); conditions: 20th day after treatment; further: ranges in brackets are in %
Method: as §1
(§5) (3) Biological Test (Upland Soil Treatment Test, Herbicide Examples 3 and 4 and Herbicide Comparative Examples 3 and 4)
as §3, with “barnyardgrass,” for “barnyard grass,”, “cocklebur,” for “cocklebur ,”, “for” for “f or”
(§6) The herbicidal efficacy and the phytotoxicity to crops are shown on the basis of the ratings described in (2) Foliar treatment test.

green foxtail [9] = assay: Upland soil treatment test (3); conditions: 20th day after treatment; further: ranges in brackets are in %
Method: as §1, §5
as §3, with “barnyardgrass,” for “barnyard grass,”, “cocklebur,” for “cocklebur ,”, “for” for “f or”
as §6

large crabgrass [10] = assay: Upland soil treatment test (3); conditions: 20th day after treatment; further: ranges in brackets are in %
Method: as §1, §5
as §3, with “barnyardgrass,” for “barnyard grass,”, “cocklebur,” for “cocklebur ,”, “for” for “f or”
as §6

cocklebur [11] = assay: Upland soil treatment test (3); conditions: 20th day after treatment; further: ranges in brackets are in %
Method: as §1, §5
as §3, with “barnyardgrass,” for “barnyard grass,”, “cocklebur,” for “cocklebur ,”, “for” for “f or”
as §6

slender amaranth [12] = assay: Upland soil treatment test (3); conditions: 20th day after treatment; further: ranges in brackets are in %
Method: as §1, §5
as §3, with “barnyardgrass,” for “barnyard grass,”, “cocklebur,” for “cocklebur ,”, “for” for “f or”
as §6

barnyard grass [13] = assay: Upland soil treatment test (3); conditions: 20th day after treatment; further: ranges in brackets are in %
Method: as §1, §5
as §3, with “barnyardgrass,” for “barnyard grass,”, “cocklebur,” for “cocklebur ,”, “for” for “f or”
as §6

velvetleaf [14] = assay: Upland soil treatment test (5); conditions: dosage 100 g a.i./hectare, 20th day after treatment; further: ranges in brackets are in %
Method: as §1
(§7) (5) Biological Test (Upland Soil Treatment Test, Herbicide Examples 10-26 and Comparative Example 9)
as §3, with “cocklebur,” for “cocklebur ,”, “for” for “f or”
(§8) The dosage of each herbicide is indicated as an amount of the active ingredient per hectare. Further, air-dried weight were measured, and herbicidal efficacy and the pytotoxicity to corn are shown on the basis of the ratings described below.

green foxtail [15] = assay: Upland soil treatment test (5); conditions: dosage 100 g a.i./hectare, 20th day after treatment; further: ranges in brackets are in %
Method: as §1, §7
as §3, with “cocklebur,” for “cocklebur ,”, “for” for “f or”
as §8

large crabgrass [16] = assay: Upland soil treatment test (5); conditions: dosage 100 g a.i./hectare, 20th day after treatment; further: ranges in brackets are in %
Method: as §1, §7
as §3, with “cocklebur,” for “cocklebur ,”, “for” for “f or”
as §8

cocklebur [17] = assay: Upland soil treatment test (5); conditions: dosage 100 g a.i./hectare, 20th day after treatment; further: ranges in brackets are in %
Method: as §1, §7
as §3, with “cocklebur,” for “cocklebur ,”, “for” for “f or”
as §8

slender amaranth [18] = assay: Upland soil treatment test (5); conditions: dosage 100 g a.i./hectare, 20th day after treatment; further: ranges in brackets are in %
Method: as §1, §7
as §3, with “cocklebur,” for “cocklebur ,”, “for” for “f or”
as §8

barnyard grass [19] = assay: Upland soil treatment test (5); conditions: dosage 100 g a.i./hectare, 20th day after treatment; further: ranges in brackets are in %
Method: as §1, §7
as §3, with “cocklebur,” for “cocklebur ,”, “for” for “f or”
as §8

velvetleaf [20] = assay: Foliar treatment test (2); conditions: 20th day after treatment; further: ranges in brackets are in %
Method: as §1
(§9) (2) Biological Test (Foliar Treatment Test, Herbicide Examples 1 and 2 and Herbicide Comparative Examples 1 and 2)
as §3, with “cocklebur,” for “cocklebur ,”, “The seeds were grown in a greenhouse, and at the stage of 1˜2 leaves of these plants,” for “Then,”, “leaf and stalk portions at a rate of 200 liter/10 are.” for “the soil surface.”, “for” for “f or”
(§10) The herbicidal efficacy and phytotoxcity to crops were shown on the basis of the following ratings.
(§11) The ratio of remaining plant weight to non-treated was determined on the basis of the ratio of remaining plant weight to non-treated=(remaining plant weight in treated plot/remaining plant weight in non-treated plot)×100. This is also applicable to biological tests hereinafter.

green foxtail [21] = assay: Foliar treatment test (2); conditions: 20th day after treatment; further: ranges in brackets are in %
Method: as §1, §9
as §3, with “cocklebur,” for “cocklebur ,”, “The seeds were grown in a greenhouse, and at the stage of 1˜2 leaves of these plants,” for “Then,”, “leaf and stalk portions at a rate of 200 liter/10 are.” for “the soil surface.”, “for” for “f or”
as §10, §11

large crabgrass [22] = assay: Foliar treatment test (2); conditions: 20th day after treatment; further: ranges in brackets are in %
Method: as §1, §9
as §3, with “cocklebur,” for “cocklebur ,”, “The seeds were grown in a greenhouse, and at the stage of 1˜2 leaves of these plants,” for “Then,”, “leaf and stalk portions at a rate of 200 liter/10 are.” for “the soil surface.”, “for” for “f or”
as §10, §11

cocklebur [23] = assay: Foliar treatment test (2); conditions: 20th day after treatment; further: ranges in brackets are in %
Method: as §1, §9
as §3, with “cocklebur,” for “cocklebur ,”, “The seeds were grown in a greenhouse, and at the stage of 1˜2 leaves of these plants,” for “Then,”, “leaf and stalk portions at a rate of 200 liter/10 are.” for “the soil surface.”, “for” for “f or”
as §10, §11

slender amaranth [24] = assay: Foliar treatment test (2); conditions: 20th day after treatment; further: ranges in brackets are in %
Method: as §1, §9
as §3, with “cocklebur,” for “cocklebur ,”, “The seeds were grown in a greenhouse, and at the stage of 1˜2 leaves of these plants,” for “Then,”, “leaf and stalk portions at a rate of 200 liter/10 are.” for “the soil surface.”, “for” for “f or”
as §10, §11

barnyard grass [25] = assay: Foliar treatment test (2); conditions: 20th day after treatment; further: ranges in brackets are in %
Method: as §1, §9
as §3, with “cocklebur,” for “cocklebur ,”, “The seeds were grown in a greenhouse, and at the stage of 1˜2 leaves of these plants,” for “Then,”, “leaf and stalk portions at a rate of 200 liter/10 are.” for “the soil surface.”, “for” for “f or”
as §10, §11

corn [26] = assay: Upland soil treatment test (5), phytotoxicity; conditions: dosage 100 g a.i./hectare, 20th day after treatment
Method: as §1, §7
as §3, with “cocklebur,” for “cocklebur ,”, “for” for “f or”
as §8

CCn1ncc(C(=O)c2cc(C)c3c(c2C)C(C)CCS3(=O)=O)c1O (stereo not shown) [Compound 44, 4,5,8-trimethyl-6-(1-ethyl-5-hydroxypyrazol-4-yl)carbonylthiochroman-1,1-dioxide]
Phytotoxicity to corn (corn [1]): 0 (100)
Herbicidal efficacy (E): velvetleaf (velvetleaf [2]): 5 (0)
Herbicidal efficacy (C): green foxtail (green foxtail [3]): 5 (0)
Herbicidal efficacy (A): large crabgrass (large crabgrass [4]): 5 (0)
Herbicidal efficacy (D): cocklebur (cocklebur [5]): 5 (0)
Herbicidal efficacy (F): slender amaranth (slender amaranth [6]): 5 (0)
Herbicidal efficacy (B): barnyard grass (barnyard grass [7]): 5 (0)

CCn1ncc(C(=O)c2cc(C)c3c(c2C)C(C)CCS3(=O)=O)c1OS(=O)(=O)c1ccc(C)cc1 (stereo not shown) [Compound 52, 4,5,8-trimethyl-6-(1-ethyl-5-p-toluenesulfonyloxypyrazol-4-yl)carbonylthiochroman-1,1-dioxide]
Phytotoxicity to corn (corn [1]): 0 (100)
Herbicidal efficacy (E): velvetleaf (velvetleaf [2]): 5 (0)
Herbicidal efficacy (C): green foxtail (green foxtail [3]): 5 (0)
Herbicidal efficacy (A): large crabgrass (large crabgrass [4]): 5 (0)
Herbicidal efficacy (D): cocklebur (cocklebur [5]): 5 (0)
Herbicidal efficacy (F): slender amaranth (slender amaranth [6]): 5 (0)
Herbicidal efficacy (B): barnyard grass (barnyard grass [7]): 5 (0)

CCn1ncc(C(=O)c2ccc3c(c2C)C(C)(C)CCS3)c1O [Compound 2]
Herbicidal Efficacy velvetleaf (velvetleaf [8]; dosage 3 g a.i./are): 5 (0)
Herbicidal Efficacy velvetleaf (velvetleaf [8]; dosage 10 g a.i./are): 5 (0)
Herbicidal Efficacy green foxtail (green foxtail [9]; dosage 3 g a.i./are): 5 (0)
Herbicidal Efficacy green foxtail (green foxtail [9]; dosage 10 g a.i./are): 5 (0)
Herbicidal Efficacy large crabgrass (large crabgrass [10]; dosage 3 g a.i./are): 5 (0)
Herbicidal Efficacy large crabgrass (large crabgrass [10]; dosage 10 g a.i./are): 5 (0)
Herbicidal Efficacy cocklebur (cocklebur [11]; dosage 3 g a.i./are): 5 (0)
Herbicidal Efficacy cocklebur (cocklebur [11]; dosage 10 g a.i./are): 5 (0)
Herbicidal Efficacy slender amaranth (slender amaranth [12]; dosage 3 g a.i./are): 5 (0)
Herbicidal Efficacy slender amaranth (slender amaranth [12]; dosage 10 g a.i./are): 5 (0)
Herbicidal Efficacy barnyard grass (barnyard grass [13]; dosage 3 g a.i./are): 5 (0)
Herbicidal Efficacy barnyard grass (barnyard grass [13]; dosage 10 g a.i./are): 5 (0)
Herbicidal Efficacy velvetleaf (velvetleaf [14]): 5 (0)
Herbicidal Efficacy green foxtail (green foxtail [15]): 5 (0)
Herbicidal Efficacy large crabgrass (large crabgrass [16]): 5 (0)
Herbicidal Efficacy cocklebur (cocklebur [17]): 5 (0)
Herbicidal Efficacy slender amaranth (slender amaranth [18]): 5 (0)
Herbicidal Efficacy barnyard grass (barnyard grass [19]): 5 (0)
Herbicidal Efficacy velvetleaf (velvetleaf [20]; dosage 3 g a.i./are): 4 (1-20)
Herbicidal Efficacy velvetleaf (velvetleaf [20]; dosage 10 g a.i./are): 5 (0)
Herbicidal Efficacy green foxtail (green foxtail [21]; dosage 3 g a.i./are): 3 (21-40)
Herbicidal Efficacy green foxtail (green foxtail [21]; dosage 10 g a.i./are): 5 (0)
Herbicidal Efficacy large crabgrass (large crabgrass [22]; dosage 3 g a.i./are): 5 (0)
Herbicidal Efficacy large crabgrass (large crabgrass [22]; dosage 10 g a.i./are): 5 (0)
Herbicidal Efficacy cocklebur (cocklebur [23]; dosage 3 g a.i./are): 5 (0)
Herbicidal Efficacy cocklebur (cocklebur [23]; dosage 10 g a.i./are): 5 (0)
Herbicidal Efficacy slender amaranth (slender amaranth [24]; dosage 3 g a.i./are): 3 (21-40)
Herbicidal Efficacy slender amaranth (slender amaranth [24]; dosage 10 g a.i./are): 5 (0)
Herbicidal Efficacy barnyard grass (barnyard grass [25]; dosage 3 g a.i./are): 4 (1-20)
Herbicidal Efficacy barnyard grass (barnyard grass [25]; dosage 10 g a.i./are): 5 (0)
Phyto-toxicity to corn (corn [26]): 0 (100)

CCn1ncc(C(=O)c2ccc3c(c2C)CCCS3(=O)=O)c1O [Compound 48, 5-Methyl-6-(1-ethyl-5-hydroxypyrazol-4-yl)carbonylthiochroman-1,1-dioxide]
Phytotoxicity to corn (corn [1]): 0 (100)
Herbicidal efficacy (E): velvetleaf (velvetleaf [2]): 5 (0)
Herbicidal efficacy (C): green foxtail (green foxtail [3]): 1 (61-80)
Herbicidal efficacy (A): large crabgrass (large crabgrass [4]): 5 (0)
Herbicidal efficacy (D): cocklebur (cocklebur [5]): 1 (61-80)
Herbicidal efficacy (F): slender amaranth (slender amaranth [6]): 5 (0)
Herbicidal efficacy (B): barnyard grass (barnyard grass [7]): 5 (0)

Source: patent publication US6677460B1, “Aromatic carboxylic acid bicyclic sulfur compounds” (Idemitsu Kosan Company, Limited, priority 1993, dated 2004)
